Results published in the NIST ThermoML archive (doi:10.1021/je200302h).
± gives the expanded uncertainty stated by the source.

Details: Liquid, Drop weight

O=C=O [carbon dioxide] + O
interfacial tension [mN/m]
Details | 8380 kPa | 10440 kPa | 13890 kPa | 17340 kPa | 20790 kPa
298.15 K | 25.65 ± 0.42 | 25.15 ± 0.28 | 24.85 ± 0.29 | 24.9 ± 0.3 | 25 ± 1
313.15 K | 22.23 ± 0.58 | 22.16 ± 0.6 | 23.33 ± 0.46 | 23.41 ± 0.46 | 25.07 ± 0.53
323.15 K | – | 23.05 ± 0.57 | 22.74 ± 0.68 | 24.27 ± 0.78 | 23.5 ± 0.4
333.15 K | – | – | 23.36 ± 0.51 | 23.58 ± 0.69 | 22.8 ± 0.6
